Laboratory results taken from paper PMC10812557, “Progressive Design of a Ranatuerin-2 Peptide from Amolops wuyiensis: Enhancement of Bioactivity and In Vivo Efficacy” (Antibiotics, 2023).
Several values for one entry are separate records, joined by “and”; a condition that tells them apart may be missing. Identical values can stand only once. Like-named read-outs stand apart in the source and are kept apart here. Peptide text beside a SMILES is read from it.

Columns and labels:
[1] = system: MRSA (NCTC 12493); assay type: cell-based, methicillin-resistant Staphylococcus aureus
Method: (§1) As a previous study described in detail, the ability of R2AW and its analogues to inhibit and eradicate the formation of biofilm was investigated. The MBIC is the lowest concentration which inhibits the formation of biofilm. The MBEC is the minimum concentration that eradicates biofilm. Six bacterial strains were used, as described above. Briefly, the bacteria were cultured and then diluted to 5 × 10^5 CFU/mL. In MBIC assays, 1 μL of each concentration of R2AW and its analogues (ranging from 512 × 10^2 μM to 100 μM) was mixed with 99 μL of diluted bacterial suspension in a 96-well plate for 16-20 h at 37 °C. As for MBEC assays, 100 μL of cultured bacteria were seeded in a 96-well plate and incubated on the shaking incubator at 37 °C overnight for biofilm formation. Subsequently, each well was rinsed twice with 100 μL sterile PBS to remove planktonic cells, and then replaced with 100 μL of each concentration (ranging from 512 μM to 1 μM) of peptides. After 24 h incubation, the biofilm was washed twice with 100 μL of PBS and fixed with methanol. Next, the same volume of 0.1% crystal violet solution (Sigma-Aldrich, Gillingham, UK) was added to each well to stain the biofilm. After that, 100 μL of 30% of acetic acid (Sigma-Aldrich, Gillingham, UK) was transferred to each well for dissolution. The solutions were transferred into a new 96-well plate and the absorbances of wells was monitored using a Synergy HT plate reader set to 595 nm.

[2] = system: S. aureus (NCTC 10788); assay type: cell-based, Staphylococcus aureus
Method: as §1

[3] = system: P. aeruginosa (ATCC 9027); assay type: cell-based, Pseudomonas aeruginosa
Method: as §1

[4] = system: E. faecium (NTCC 12697); assay type: cell-based
Method: as §1

[5] = system: E. faecium (NTCC 12697); experiment: microbe, parasite or virus in culture; assay type: cell-based
Text: (§2) The MIC and MBC assays were used to assess the inhibitory activities of all 5 analogues of R2AW on the growth of planktonic microorganisms. The MIC is the lowest concentration that prevents the viable growth of bacteria. The MBC is the lowest concentration that results in bacterial death. Six microorganisms were used to detect the antimicrobial activity of peptides, including Gram-positive bacteria S. aureus (NCTC 10788), MRSA (NCTC 12493), Enterococcus faecalis (E. faecalis) (NCTC 12697), Gram-negative bacteria E. coli […], Klebsiella pneumoniae (K. pneumoniae) (ATCC 43816), and Pseudomonas aeruginosa (P. aeruginosa) (ATCC 9027). According to the assay described previously, the microorganisms were inoculated at 37 °C overnight and diluted to 5 × 10^5 CFU/mL after reaching the logarithmic growth period. The peptide stock solution at the concentration of 512 × 10^2 μM was prepared and diluted to 100 μM by a 2-fold dilution. One μL of each concentration of peptide solution was incubated with 99 μL of bacterial subculture in the 96-well plate for 18 h at 37 °C. The absorbance was determined at a wavelength of 550 nm using a Synergy HT plate reader (Bio Tek, Washington, DC, USA). […] As for those wells that were clearly visible, 20 μL of the solution was dropped onto the Mueller Hinton agar (MHA) dish and then incubated at 37 °C overnight. The lowest concentration with no colony growth was determined as the MBC.

[6] = system: S. aureus (NCTC 10788); experiment: microbe, parasite or virus in culture; assay type: cell-based
Text: as §2

[7] = system: MRSA (NCTC 12493); experiment: microbe, parasite or virus in culture; assay type: cell-based
Text: as §2

[8] = system: K. pneumoniae (ATCC 43816); assay type: cell-based, Klebsiella pneumoniae
Method: as §1

[9] = system: K. pneumoniae (ATCC 43816); assay type: cell-based; settings: ATCC 43816, 18 h
Text: as §2

[10] = system: P. aeruginosa (ATCC 9027); assay type: cell-based; settings: ATCC 9027, 18 h
Text: as §2

[11] = system: E. coli (ATCC 8739); assay type: cell-based; settings: ATCC 8739, 18 h
Text: as §2

[12] = Haemolysis assay; assay type: cell-based, horse
Method: The haemolytic activity of R2AW and its five designed analogues on mammalian erythrocytes was evaluated using 2% defibrinated horse blood (TCS Biosciences Ltd., Buckingham, UK) as per a previous report. Two mL of fresh horse blood was transferred into a 50 mL tube and then washed with sterilised PBS. The supernatant was removed after centrifuging (930× g, 5 min). The centrifugation procedure was repeated until the supernatant was clear. After washing, the red blood cell pellet was diluted with PBS to achieve a 4% (v/v) erythrocyte suspension. The concentrations of R2AW and its designed derivatives were prepared from 512 μM to 2 μM by two-fold dilution in sterilised PBS. One hundred µL of red blood cell suspension was added into a 1.5 mL tube treated with the same volume of each concentration of peptide and incubated at 37 °C for 2 h. The red blood cell suspensions treated with 0.2% Triton X-100 and with PBS were regarded as positive control and negative control. After centrifugation at 930× g for 10 min, 100 μL of suspension was transferred to a 96-well plate, and the absorbance was obtained by use of a Synergy HT plate reader. The degree of haemolysis could be calculated using the following formula: Haemolysis = (absorbance (experimental groups) − absorbance (negative control))/(absorbance (positive control) − absorbance (negative control)) × 100%.

[13] = system: E. coli (ATCC 8739); assay type: cell-based, Escherichia coli
Method: as §1

[14] = system: PC-3; assay type: cell-based, human; settings: 24 h
Method: (§3) Five human cancer cell lines of non-small-cell lung cancer H838, human prostate carcinoma PC-3, human neuronal glioblastoma U251MG, human breast cancer cell MCF-7, and colorectal carcinoma HCT116 were used to detect the antiproliferative abilities of R2AW and its five analogues. According to the procedures in a previous article, cells (8000 cells/well) were seeded into the 96-well tissue culture plates and incubated at 37 °C with 5% CO2 overnight. The solutions of R2AW and its analogues at concentrations of 10^−4 M to 10^−9 M were prepared in the serum-free medium. Next, cells in each well were treated with 100 μL of each peptide solution for 24 h. Subsequently, 10 μL of 5 mg/mL MTT (3-(4, 5-Dimethylthiazol-2-yl-)-2, 5-Diphehyltetrazolium Bromide) was added to each well followed by 37 °C incubation for 2 h. After that, the liquid in each well was removed and 100 μL of DMSO was added to dissolve the purple formazan. The plate was placed on a shaking incubator for 10 min, and the absorbance was detected at 550 nm using a Synergy HT plate reader (Biotech, Minneapolis, MN, USA).

[15] = system: U251MG; assay type: cell-based, human; settings: 24 h
Method: as §3

[16] = system: H838; assay type: cell-based, human; settings: 24 h
Method: as §3

[17] = system: MCF-7; assay type: cell-based, human; settings: 24 h
Method: as §3

[18] = system: HCT116; assay type: cell-based, human; settings: 24 h
Method: as §3

[19] = system: MRSA (NCTC 12493); experiment: Time–killing assay; assay type: cell-based, methicillin-resistant Staphylococcus aureus; settings: control antibiotic, 3 h incubation
Method: (§4) S. aureus (NCTC 10788), E. coli (ATCC 8739), MRSA (NCTC 12493), and P. aeruginosa (ATCC 9027) were used in this assay. Treatments of 2 × MIC, 1 × MIC, and 0.5 × MIC of [Lys^4,19, Leu^20]R2AW(1-22)-NH2 were prepared and mixed with 198 μL of diluted bacteria (5 × 10^5 CFU/mL). At each time point (0, 10, 20, 30, 60, 90, 120, and 180 min), 10 μL of peptide and bacteria mixture was dropped onto the MHA plate. After overnight incubation, the number of bacterial colonies was calculated. The CFU/mL could be calculated using the formula CFU/mL = (Number of colonies × dilution factor)/volume of culture.

[20] = system: S. aureus (NCTC 10788); experiment: Time–killing assay; assay type: cell-based, Staphylococcus aureus; settings: control antibiotic, 3 h incubation
Method: as §4

[21] = Staphylococcus aureus, NCTC10788

Row | Compound | MBEC [2] [µM] | MBIC [2] [µM] | MBEC [3] [µM] | MBIC [3] [µM] | MBEC [4] [µM] | MBIC [4] [µM] | MBC ([5]; NTCC 12697, 18 h) [mg/L] | MBC ([6]; NCTC 10788, 18 h) [mg/L] | MIC ([6]; NCTC 10788, 18 h) | MBC ([7]; MRSA (NCTC 12493)) [mg/L] | MIC ([7]; MRSA (NCTC 12493)) [mg/L] | MBEC [8] [µM] | MBIC [8] [µM] | MBC [9] [µg/mL] | MIC [9] [µg/mL] | MBC [10] [µg/mL] | MIC [10] [µg/mL] | MBC [11] [µg/mL] | MIC [11] | MBEC [13] [µM] | further results
1 | CC[C@H](C)[C@H](NC(=O)[C@H](CCCCN)NC(=O)[C@H](CO)NC(=O)[C@H](CCCCN)NC(=O)[C@H](CC(C)C)NC(=O)[C@H](CCCCN)NC(=O)[C@H](CC(=O)O)NC(=O)[C@H](CC(C)C)NC(=O)[C@H](CC(C)C)NC(=O)[C@@H](NC(=O)[C@H](C)NC(=O)[C@H](C)NC(=O)[C@@H](NC(=O)[C@H](CC(N)=O)NC(=O)[C@H](CCCCN)NC(=O)[C@H](C)NC(=O)[C@@H](NC(=O)[C@H](CC(N)=O)NC(=O)[C@H](CCCCN)NC(=O)[C@H](C)NC(=O)[C@@H](NC(=O)[C@H](CC(=O)O)NC(=O)[C@H](CCSC)NC(=O)[C@H](Cc1ccccc1)NC(=O)CN)[C@@H](C)O)C(C)C)C(C)C)[C@@H](C)O)C(=O)N[C@H](C(=O)NCC(=O)NCC(=O)N[C@@H](CO)C(=O)O)[C@@H](C)O [[Ser^23,29]R2AW] (H-GFMDTAKNVAKNVAATLLDKLKSKITGGS-OH) | > 512 | 128 | >512 | >512 | >512 | >512 | 1526 | 191 | 64 µM | 1526 | 763 | >512 | >512 | 1526 | 763 | > 1526 | 1526 | 381 | 64 µM | 512 | MBEC ([1]; MRSA (NCTC 12493)): > 512 µM; MBIC ([1]; MRSA (NCTC 12493)): 256 µM; hemolysis at 2 h ([12]; horse erythrocytes (washed red blood cell suspension), horse erythrocytes, up to 256 μM): ~10%; MBIC [13]: 128 µM; IC50 [14]: 17.4 µM; IC50 [15]: 37.3 µM; IC50 [16]: 19.3 µM; IC50 [17]: 62.7 µM; IC50 [18]: 31.6 µM
2 | CN[C@H](CC(C)C)C(=O)N[C@H]1C(=O)N[C@@H](CC(N)=O)C(=O)N[C@H]2C(=O)N[C@H]3C(=O)N[C@H](C(=O)N[C@H](C(=O)O)c4cc(O)cc(O)c4-c4cc3ccc4O)[C@H](O)c3ccc(c(Cl)c3)Oc3cc2cc(c3O[C@@H]2O[C@H](CO)[C@@H](O)[C@H](O)[C@H]2O[C@H]2C[C@](C)(N)[C@H](O)[C@H](C)O2)Oc2ccc(cc2Cl)[C@H]1O [Vancomycin, reference compound] | – | – | – | – | – | – | – | – | – | – | – | – | – | – | – | – | – | – | – | – | killing effect in time–killing curve [19]: could only inhibit the growth of bacteria; MBC ([5]; Enterococcus faecium): > 92.7 µg/mL and > 64 µM; MIC ([5]; Enterococcus faecium): 0.7 µg/mL and 0.5 µM; MBC [6, 21]: 0.7 µg/mL and 0.5 µM; MIC [6, 21]: 0.7 µg/mL and 0.5 µM; MBC ([7]; Staphylococcus aureus): 0.7 µg/mL and 0.5 µM; MIC ([7]; Staphylococcus aureus): 0.7 µg/mL and 0.5 µM; killing effect in time–killing curve [20]: could only inhibit the growth of bacteria
3 | CSCC[C@H](NC(=O)[C@H](Cc1ccccc1)NC(=O)CN)C(=O)N[C@@H](CCCCN)C(=O)N[C@H](C(=O)N[C@@H](Cc1c[nH]c2ccccc12)C(=O)N[C@@H](CCCCN)C(=O)N[C@@H](CC(N)=O)C(=O)N[C@H](C(=O)N[C@@H](Cc1c[nH]c2ccccc12)C(=O)N[C@@H](CCCCN)C(=O)N[C@@H](CC(N)=O)C(=O)N[C@H](C(=O)N[C@@H](C)C(=O)N[C@@H](C)C(=O)N[C@H](C(=O)N[C@@H](CC(C)C)C(=O)N[C@@H](CC(C)C)C(=O)N[C@@H](CCCCN)C(=O)N[C@@H](CC(C)C)C(=O)N[C@@H](CC(C)C)C(=O)N[C@@H](CCCCN)C(N)=O)[C@@H](C)O)C(C)C)C(C)C)[C@@H](C)O [[Trp^6,10]R2AW(1-22)-NH2] (H-GFMKTWKNVWKNVAATLLKLLK-NH2; N-terminus assumed) | 512 | 8 | 512 | 32 | > 512 | 8 | 41.4 | 20.7 | 10.4 mg/L | 20.7 | 10.4 | 256 | 16 | 82.8 | 41.4 | 166 | 82.8 | 41.4 | 20.7 µg/mL | 256 | MBEC ([1]; NCTC 12493): > 512 µM; MBIC ([1]; NCTC 12493): 8 µM; MIC ([5]; NTCC 12697, 18 h): 20.7 mg/L; hemolysis at 2 h, 2 µM ([12]; horse): ~20%; MBIC [13]: 4 µM; IC50 [14]: 1.73 µM; IC50 [15]: 3.35 µM; IC50 [16]: 3.41 µM; IC50 [17]: 5.33 µM; IC50 [18]: 5.38 µM
